Data taken from patent US12411143B2, “CD146 and uses thereof as a biomarker and as a therapeutic target in the diagnosis and treatment of fibrosis” (ASSISTANCE PUBLIQUE HÔPITAUX DE MARSEILLE, priority 2018, dated 2025).
Entries after “also recorded” stand apart in the source; their conditions may differ.

Assays:
[1] = test system: Human cardiac fibroblasts (HCFs); assay: Myofibroblast marker expression in human cardiac fibroblasts (RT-PCR, western blot, immunofluorescence); format: cell-based
Procedure: Human cardiac fibroblasts (HCFs) (PromoCell) are grown in Fibroblast Growth Medium 3 Supplement Pack (PromoCell) in an environment at 37° C. with controlled atmosphere. The HCFs are grown between passages 3 and 7.
To perform the stimulations, the fibroblasts are seeded at a density of 30 000 cells/cm^2 in complete culture medium. After 24 hours of adhesion, the cell culture medium is replaced with medium not containing growth factor (minimal medium) for 4 hours.
Total mRNA is extracted using a purification kit (RNeasy Mini, Qiagen) then eluted in 30 μL of RNase-free water. The amount of RNA is measured at 260 nm using a spectrophotometer (NanoDrop). The RNA is then converted to cDNA using 200 ng of RNA and according to the same protocol as the tissue RNA. The gene expression study is performed by real-time PCR from 10 ng of cDNA (Table 4).
The cells are lysed at 4° C. in a buffer composed of 10 mMTris-HCl (pH 8), 1 mM EDTA, 150 mMNaCl, 10% NP40, containing a protease inhibitor cocktail (Pierce, Thermo Scientific). The cell lysate obtained is centrifuged at 4° C. and 15000 g for 10 minutes. The supernatant containing solubilized proteins is collected and the amount of proteins determined using a calibration curve of bovine serum albumin (BSA) prepared from a 1 mg/mL BSA solution diluted in the lysis buffer used during sample preparation.
The samples are then used in western blot experiments. To that end, an aliquot containing 30 μg of proteins is taken up in 4× Laemmli buffer containing a reducing agent (Invitrogen) and then heated for 10 minutes at 75° C. before being deposited on an electrophoresis gel (NuPAGE 4-12% Bis-Tris Gel, Invitrogen). After migration of the samples, the proteins are dry-transferred to a nitrocellulose membrane (iBlot 2, Invitrogen). The membrane is blocked for 45 minutes with a Tris buffer containing 0.1% Tween 20 (TBS-T) and 4% BSA. The primary antibody (Table 5) diluted in TBS-T is hybridized for 12 hours at 4° C. and then rinsed for 3×10 minutes with TBS-T. The HRP-coupled secondary antibody (TBS-T) is hybridized for 1 hour. After rinsing, HRP activity is detected using a chemiluminescent substrate (ECL, Pierce). An antibody directed against a normalizing protein (β-tubulin), the expression of which is not modified by the experimental conditions, makes it possible to normalize the quantification and then to express the results semi-quantitatively (% control). Emitted light is captured with a camera (G:BOX). The proteins of interest are visualized as black bands on a white background. The signal thus obtained is quantified by densitometry (Image Lab Software version 4.1) (Table 5).
The cells are fixed for 5 minutes in 70° ethanol at 4° C. and then rinsed with PBS. After 1 hour of blocking in a PBS solution containing 5% BSA, the primary antibody (anti-α-SMA, Dako-0851) diluted 1/50 and then the secondary antibody (anti-mouse antibody) coupled to a fluorescent molecule (Alexa Fluor 488) are incubated for 1.5 hours. Rinses with PBS are performed between each step. The cells are mounted in an aqueous medium containing a nuclear stain (ProLongMountant with DAPI, Invitrogen) before being observed under a fluorescence microscope.
Modulation of α-SMA expression was examined in response to stimulation of HCFs by 50 ng/mL of CD146 for 48 hours.

[2] = test system: miR21; assay: In vitro induction of miR21; format: cell-based

sCD146: recombinant human soluble form of CD146 corresponding to the shed sCD146, obtained from Biocytex
α-SMA network (indirect immunofluorescence) ([1]; 50 ng/mL): establishment of a smooth muscle actin network
CD146 expression ([1]; 50 ng/mL of CD146s, first results n=2): 2 fold
α-SMA protein expression level (western blot) ([1]; 50 ng/mL, 48 hours): 2.5 fold
α-SMA RNA expression level (overexpression) ([1]; 50 ng/mL, 48 hours, n=4): 2.5 fold
TGF-β expression at the RNA level ([1]; HCFs stimulated by CD146s, preliminary): increase in TGF-β expression; also recorded: able to increase TGF-β expression
expression of RNAs encoding fibronectin and type I collagen ([1]; semiquantitative RT-PCR, comparable to TGF-β stimulation): increase in synthesis of fibronectin and of type I collagen
miR21 induction [2]: significantly induces in vitro miR21
